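Protocol summary: plate cells (96-well), add compound at 5 concentrations, incubate 48 h, interpolate endpoints linearly. GI50 marks 50% less growth.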 Active and inactive are the calls of the source. Cut-off read from the data, not from the text of the source: active = GI50 up to about 1.1 µM and inactive = higher.
What was measured:
Experiment in all cases: NCI-60 cell line screen, 48 h
[1] = test system: A549
[2] = test system: ACHN
[3] = test system: CAKI-1
[4] = test system: CCRF-CEM
[5] = test system: COLO 205
[6] = test system: HCC 2998
[7] = test system: HT-29
[8] = test system: LOX IMVI
[9] = test system: NCI-H226
[10] = test system: OVCAR-5
[11] = test system: SF-539
[12] = test system: SK-MEL-28
[13] = test system: SNB-75
[14] = test system: SR
[15] = test system: TK-10

| SMILES | GI50 [1] | GI50 [2] | GI50 [3] | GI50 [4] | GI50 [5] | GI50 [6] | GI50 [7] | GI50 [8] | GI50 [9] | GI50 [10] | GI50 [11] | GI50 [12] | GI50 [13] | GI50 [14] | GI50 [15] |
| --- | --- | --- | --- | --- | --- | --- | --- | --- | --- | --- | --- | --- | --- | --- | --- |
| CN(C)CCNC(=O)c1cccc2ccc(-c3ccc(-c4ccccc4)cc3)nc12 | 2.89 µM (inactive) | 5.47 µM (inactive) | 5.13 µM (inactive) | 2.72 µM (inactive) | 1.6 µM (inactive) | 1.83 µM (inactive) | 1.75 µM (inactive) | 1.63 µM (inactive) | 13.1 µM (inactive) | 3.92 µM (inactive) | 1.8 µM (inactive) | 1.76 µM (inactive) | 2.88 µM (inactive) | 2.3 µM (inactive) | 4.48 µM (inactive) |
| O=C1C=CC=CC2CC=C[C@@H](O)C12 (stereo not given in full) | 26.2 µM (inactive) | 17.3 µM (inactive) | 65.6 µM (inactive) | 15.3 µM (inactive) | 19.6 µM (inactive) | – | 16.8 µM (inactive) | 15.6 µM (inactive) | – | 30.5 µM (inactive) | 24.5 µM (inactive) | – | – | 18.8 µM (inactive) | 32.4 µM (inactive) |
| C=Cc1cncc(C#N)c1CCc1c(C#N)cncc1C=C | > 10 µM (inactive) | > 10 µM (inactive) | 63.2 µM (inactive) | > 10 µM (inactive) | > 10 µM (inactive) | > 10 µM (inactive) | > 10 µM (inactive) | > 100 µM (inactive) | > 10 µM (inactive) | > 10 µM (inactive) | > 10 µM (inactive) | > 10 µM (inactive) | > 10 µM (inactive) | > 10 µM (inactive) | > 10 µM (inactive) |
| COc1cccc2c1[C@H]1OC(=O)NC1CCCCC2 (stereo not given in full) | > 100 µM (inactive) | > 100 µM (inactive) | > 100 µM (inactive) | > 100 µM (inactive) | > 100 µM (inactive) | > 100 µM (inactive) | > 100 µM (inactive) | > 100 µM (inactive) | > 100 µM (inactive) | > 100 µM (inactive) | > 100 µM (inactive) | > 100 µM (inactive) | > 100 µM (inactive) | – | > 100 µM (inactive) |
| CCN(CC)c1ccc(/N=C2/C=CC(=O)c3ncccc32)c(C)c1 | 11.2 µM (inactive) | 3.92 µM (inactive) | 11 µM (inactive) | 2.09 µM (inactive) | 2.18 µM (inactive) | 11.7 µM (inactive) | 15.1 µM (inactive) | 1.91 µM (inactive) | 18.5 µM (inactive) | 12 µM (inactive) | 5.56 µM (inactive) | 11.8 µM (inactive) | 14.8 µM (inactive) | 2.65 µM (inactive) | 16.3 µM (inactive) |
| C/C(CCN(C)C)=N/O | 1.6 µM (inactive) | 0.918 µM (active) | 1.02 µM (active) | 0.194 µM (active) | 0.597 µM (active) | 1.16 µM (inactive) | 0.658 µM (active) | – | 30 µM (inactive) | 18.7 µM (inactive) | 1.14 µM (inactive) | 7.13 µM (inactive) | 16.8 µM (inactive) | 0.281 µM (active) | 7.73 µM (inactive) |
| COC(=O)NC(=O)c1cn(CCCOC(=O)CCCCCCCCC(=O)OCCCn2cc(C(=O)NC(=O)OC)c(=O)[nH]c2=O)c(=O)[nH]c1=O | > 100 µM (inactive) | > 100 µM (inactive) | 28.8 µM (inactive) | > 100 µM (inactive) | – | > 100 µM (inactive) | > 100 µM (inactive) | > 100 µM (inactive) | > 100 µM (inactive) | > 100 µM (inactive) | 71.1 µM (inactive) | > 100 µM (inactive) | 22.3 µM (inactive) | > 100 µM (inactive) | 36.8 µM (inactive) |
| CN(C(=O)C12C3C4C1C1C2C3C41C(O)C(C)(C)C)C(C)(C)C (stereo not given) | > 100 µM (inactive) | > 100 µM (inactive) | > 100 µM (inactive) | > 100 µM (inactive) | > 100 µM (inactive) | > 100 µM (inactive) | > 100 µM (inactive) | > 100 µM (inactive) | > 100 µM (inactive) | > 100 µM (inactive) | > 100 µM (inactive) | > 100 µM (inactive) | > 100 µM (inactive) | – | > 100 µM (inactive) |
| O=c1c2cc(Br)cc(Br)c2[nH]c(=S)n1-c1ccccc1 | 63.1 µM (inactive) | > 100 µM (inactive) | 54.5 µM (inactive) | 42.2 µM (inactive) | > 100 µM (inactive) | 92.5 µM (inactive) | > 100 µM (inactive) | 75.2 µM (inactive) | 30.2 µM (inactive) | > 100 µM (inactive) | 83 µM (inactive) | 50.7 µM (inactive) | 32.1 µM (inactive) | – | 78.3 µM (inactive) |
| CCOC(=O)NC(=O)c1cn(CCCO)c(=O)[nH]c1=O | > 100 µM (inactive) | > 100 µM (inactive) | > 100 µM (inactive) | > 100 µM (inactive) | > 100 µM (inactive) | > 100 µM (inactive) | > 100 µM (inactive) | > 100 µM (inactive) | > 100 µM (inactive) | > 100 µM (inactive) | > 100 µM (inactive) | > 100 µM (inactive) | 45.6 µM (inactive) | – | > 100 µM (inactive) |

From ChEMBL document CHEMBL1201862, “PubChem BioAssay data set” (2004)
